The values that follow come from US12344623B2, “Thiazolopyridine derivatives as adenosine receptor antagonists” (Merck Patent GmbH, priority 2019, dated 2025).

Holding throughout (assay type): cell-based
The target of one assay is T1, human A3 receptor (Homo sapiens, UniProt P0DMS8).
T1 construct: expressed in transfected cells; host or cells: CHO
T1 sequence (P0DMS8 1-318): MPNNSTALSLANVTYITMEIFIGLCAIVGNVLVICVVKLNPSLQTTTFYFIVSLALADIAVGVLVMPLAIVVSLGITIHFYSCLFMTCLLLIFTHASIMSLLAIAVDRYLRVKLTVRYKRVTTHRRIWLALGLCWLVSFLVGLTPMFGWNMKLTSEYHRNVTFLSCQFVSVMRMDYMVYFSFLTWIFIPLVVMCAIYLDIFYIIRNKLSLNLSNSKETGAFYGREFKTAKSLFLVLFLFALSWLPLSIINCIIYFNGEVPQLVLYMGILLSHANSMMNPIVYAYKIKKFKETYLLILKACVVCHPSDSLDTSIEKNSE
Description: Functional A3 receptor activity, recombinant CHO cells, cAMP (HTRF), forskolin, agonist IB-MECA. Conditions: recombinant CHO cells, forskolin, agonist IB-MECA; read-out: Functional A3 receptor activity, CHO, cAMP, IC50. A digest of the protocol:
(§1)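 Recombinant CHO lines carrying either receptor receive forskolin, compound and the matching agonist, CPA or IB-MECA. After 30 min, HTRF reagents are added and cAMP is quantified. Values are normalized to inhibitor and neutral DMSO controls, then fitted.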
On the technique in general: TR-FRET usually uses a lanthanide donor and a delayed reading to cut background.

The target in the next assay is T2, human A1 receptor (Homo sapiens, UniProt P30542).
T2 construct: expressed in transfected cells; host or cells: CHO
T2 sequence (P30542 1-326): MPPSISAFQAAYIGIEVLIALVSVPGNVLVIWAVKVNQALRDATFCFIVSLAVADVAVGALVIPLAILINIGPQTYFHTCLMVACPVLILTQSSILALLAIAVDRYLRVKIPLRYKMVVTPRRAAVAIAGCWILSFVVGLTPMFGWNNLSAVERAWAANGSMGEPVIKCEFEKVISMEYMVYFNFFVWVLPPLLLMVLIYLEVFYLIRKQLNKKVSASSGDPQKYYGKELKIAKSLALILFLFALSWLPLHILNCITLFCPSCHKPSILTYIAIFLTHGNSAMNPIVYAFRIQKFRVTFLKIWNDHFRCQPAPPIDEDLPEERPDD
In words: Functional A1 receptor activity, recombinant CHO cells, cAMP (HTRF), forskolin, agonist CPA. Conditions: recombinant CHO cells, forskolin, agonist CPA; read-out: Functional A1 receptor activity, CHO, cAMP, IC50. The procedure, abridged:
as §1

The subject of a further assay is mouse Pan T cells. Description: mTcell assay, cAMP, agonist NECA. The settings on record: Mus musculus, T-cell. An excerpt:
Adenosine (Ado) in tumor microenvironment can inhibit T cell activity by signaling through A2A receptors and suppress cytokine secretion by T cells. […] Potential A2A antagonists or A2A/A2B dual antagonists can rescue T cells from this inhibition. Herein, we describe the in vitro system we established using Pan T cells from mouse spleens to screen potential A2A antagonists or A2A/A2B dual antagonists for their activity. The method described involves the use of CD3/CD28 pre-coated beads to stimulate Pan T cells purified from mouse splenocytes, combined with the addition of A2A agonist along with potential A2A or A2A/A2B dual antagonists to evaluate potentiation of T cell cytokine production.
Pan T-cells are isolated from black 6 mice by manual dissociation and purified using a Miltenyi Pan T-cell isolation kit. The isolated T-cells are activated in 96 well plates for 48 hours using anti-CD3/CD28 beads in T-cell proliferation media.
After 48 hours, the T-cells are pooled, counted and suspended in serum free media containing 0.1% BSA. The cells are plated at 50,000 cells per well in 10 ul of media and incubated for 2 hours at 37° C. Test compounds are dispensed into the wells at a 10-point dose response, starting at a concentration of 10 uM. […] The plates are incubated for 30 minutes at 37° C. and assayed for cAMP levels using the Cisbio cAMP Dynamic2 reagent kit by adding 10 ul of the kit reagents to each well. The plates are incubated for 1 hour at room temperature and the HTRF signal is read on an Envision plate reader. The raw data is analyzed in Genedata Screener and the resulting data is loaded into the database.

Assay [1] addresses T3, human A2A receptor (Homo sapiens, UniProt P29274). Description: Human T cells, endogenous A2A receptor, cAMP, agonist NECA. The settings on record: read-out: hTcell data, cAMP, IC50. A digest of the protocol:
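Pan T cells isolated from fresh human blood PBMC, endogenously expressing Gs-coupled A2A, treated with compounds. Cellular cAMP measured by HTRF after 1 h; data normalized to inhibitor control and DMSO neutral control, then curve-fitted.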

Assay [2] deals with T3, human A2A receptor. Description: Functional A2A receptor activity, recombinant HEK293 cells, cAMP (HTRF), agonist NECA. Set-up: expressed in transfected cells; host or cells: HEK293. The settings on record: read-out: Functional A2A receptor activity, HEK293, cAMP, IC50. A digest of the protocol:
(§2)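 Cells were seeded, then treated with forskolin, test compound and agonist. After a 30 min incubation, HTRF detection reagents were added and intracellular cAMP was read. Values were scaled between an inhibitor control and DMSO before fitting.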

A further assay addresses T4, human A2B receptor (Homo sapiens, UniProt P29275).
T4 construct: expressed in transfected cells; host or cells: HEK293
T4 sequence (P29275 1-332): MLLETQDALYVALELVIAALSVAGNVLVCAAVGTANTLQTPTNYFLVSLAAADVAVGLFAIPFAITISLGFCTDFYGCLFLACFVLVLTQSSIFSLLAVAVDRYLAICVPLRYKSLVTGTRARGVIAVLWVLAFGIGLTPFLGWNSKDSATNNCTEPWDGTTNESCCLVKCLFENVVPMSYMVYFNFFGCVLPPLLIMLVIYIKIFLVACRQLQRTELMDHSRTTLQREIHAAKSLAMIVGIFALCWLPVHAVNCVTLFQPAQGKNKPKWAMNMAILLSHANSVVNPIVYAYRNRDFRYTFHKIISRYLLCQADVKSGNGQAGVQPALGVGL
In words: Functional A2B receptor activity, recombinant HEK293 cells, cAMP (HTRF), agonist NECA. Conditions: read-out: Functional A2B receptor activity, HEK293, cAMP, IC50. The procedure, abridged:
as §2

Bounds are passed on as bounds.

T3 sequence (P29274 whole entry): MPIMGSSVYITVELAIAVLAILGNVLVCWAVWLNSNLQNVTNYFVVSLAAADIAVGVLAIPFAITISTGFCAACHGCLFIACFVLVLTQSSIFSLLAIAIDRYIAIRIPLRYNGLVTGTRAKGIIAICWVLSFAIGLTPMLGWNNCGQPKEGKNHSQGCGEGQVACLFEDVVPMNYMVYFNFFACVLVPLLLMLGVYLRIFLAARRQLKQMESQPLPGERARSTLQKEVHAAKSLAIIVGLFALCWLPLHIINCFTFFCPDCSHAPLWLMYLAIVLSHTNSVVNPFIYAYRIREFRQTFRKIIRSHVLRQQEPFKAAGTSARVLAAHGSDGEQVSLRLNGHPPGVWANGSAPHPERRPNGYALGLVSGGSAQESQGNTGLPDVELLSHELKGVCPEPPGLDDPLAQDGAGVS

`COc1nc(F)c(C2CCOCC2)c2sc(NC(=O)N3CCC4(CCCOC4)C3)nc12` (stereo not drawn) [Compound 31, 7-Oxa-2-aza-spiro[4.5]decane-2-carboxylic acid [6-fluoro-4-methoxy-7-(tetrahydro-pyran-4-yl)-thiazolo[4,5-c]pyridin-2-yl]-amide]: the IC50 (as a rule, the concentration that inhibits the measured activity by half) is greater than 1000 nM at human A3 receptor; greater than 1000 nM at human A1 receptor; less than 10 nM with mouse Pan T cells; less than 10 nM on human A2A receptor [1]; less than 10 nM at human A2A receptor [2]; less than 100 nM on human A2B receptor.
In the case of `CNc1cccc(-c2cnc(OC)c3nc(NC(=O)N4CCC5(CCOCC5)C4)sc23)c1` [Compound 112, 8-Oxa-2-aza-spiro[4.5]decane-2-carboxylic acid [4-methoxy-7-(3-methylamino-phenyl)-thiazolo[4,5-c]pyridin-2-yl]-amide], the IC50 is greater than 1000 nM at human A3 receptor; greater than 1000 nM at human A1 receptor; less than 10 nM in the assay on mouse Pan T cells; less than 10 nM at human A2A receptor [1]; less than 10 nM at human A2A receptor [2]; less than 100 nM at human A2B receptor.
`COc1ncc(-c2ccco2)c2sc(NC(=O)N3CCC4(CCOCC4)C3)nc12` [Compound 48, 8-Oxa-2-aza-spiro[4.5]decane-2-carboxylic acid (7-furan-2-yl-4-methoxy-thiazolo[4,5-c]pyridin-2-yl)-amide]: the 50% inhibitory concentration (IC50) on human A3 receptor was greater than 1000 nM; on human A1 receptor, greater than 1000 nM; in the assay with mouse Pan T cells it was less than 100 nM; at human A2A receptor [1] it was less than 100 nM; on human A2A receptor [2], less than 10 nM; on human A2B receptor, less than 10 nM.
`COc1nc(F)c(C2CCOCC2)c2sc(NC(=O)c3ccc(C(=O)N(C)CCO)cc3)nc12` [Compound 50, N-[6-Fluoro-4-methoxy-7-(tetrahydro-pyran-4-yl)-thiazolo[4,5-c]pyridin-2-yl]-N′-(2-hydroxy-ethyl)-N′-methyl-terephthalamide]: the IC50 on human A3 receptor was greater than 1000 nM; on human A1 receptor it was greater than 1000 nM; in the assay on mouse Pan T cells it was less than 100 nM; at human A2A receptor [1] it was less than 10 nM; on human A2A receptor [2], less than 10 nM; on human A2B receptor, less than 10 nM.
Take `COc1ncc(C2=CCOCC2)c2sc(NC(=O)N3CCC(N4C(=O)CCC4=O)CC3)nc12` [Compound 100, 4-(2,5-Dioxo-pyrrolidin-1-yl)-piperidine-1-carboxylic acid [7-(3,6-dihydro-2H-pyran-4-yl)-4-methoxy-thiazolo[4,5-c]pyridin-2-yl]-amide]: the IC50 was greater than 1000 nM on human A3 receptor; less than 1000 nM on human A1 receptor; less than 100 nM in the assay on mouse Pan T cells; less than 10 nM at human A2A receptor [1]; less than 10 nM on human A2A receptor [2]; less than 10 nM on human A2B receptor.
Consider `COc1ncc(-c2ccccc2)c2sc(NC(=O)N3CCC(N4C(=O)CCC4=O)CC3)nc12` [Compound 99, 4-(2,5-Dioxo-pyrrolidin-1-yl)-piperidine-1-carboxylic acid (4-methoxy-7-phenyl-thiazolo[4,5-c]pyridin-2-yl)-amide], for which the IC50 was greater than 1000 nM on human A3 receptor; greater than 1000 nM on human A1 receptor; less than 100 nM in the assay on mouse Pan T cells; less than 100 nM at human A2A receptor [1]; less than 10 nM at human A2A receptor [2]; less than 10 nM at human A2B receptor.
For `COc1ncc(C2=CCOCC2)c2sc(NC(=O)N3CCC4(CCNCC4)C3)nc12` [Compound 98, 2,8-Diaza-spiro[4.5]decane-2-carboxylic acid [7-(3,6-dihydro-2H-pyran-4-yl)-4-methoxy-thiazolo[4,5-c]pyridin-2-yl]-amide], the IC50 at human A3 receptor is greater than 1000 nM; on human A1 receptor, greater than 1000 nM; in the assay on mouse Pan T cells it was less than 100 nM; on human A2A receptor [1], less than 10 nM; on human A2A receptor [2] it was less than 10 nM; at human A2B receptor, less than 100 nM.
Take `COc1ncc(C2=CCOCC2)c2sc(NC(=O)N3CCC(N4C(=O)CNC4=O)CC3)nc12` [Compound 131, 4-(2,5-Dioxo-imidazolidin-1-yl)-piperidine-1-carboxylic acid [7-(3,6-dihydro-2H-pyran-4-yl)-4-methoxy-thiazolo[4,5-c]pyridin-2-yl]-amide]: the IC50 on human A3 receptor is greater than 1000 nM; on human A1 receptor, less than 1000 nM; in the assay on mouse Pan T cells, less than 100 nM; at human A2A receptor [1] it was less than 10 nM; on human A2A receptor [2], less than 10 nM; on human A2B receptor, less than 10 nM.
In the case of `COc1nc(F)c(N2CCOCC2)c2sc(NC(=O)N3CC[C@]4(CCCOC4)C3)nc12` [Compound 10, (R)-7-Oxa-2-aza-spiro[4.5]decane-2-carboxylic acid (6-fluoro-4-methoxy-7-morpholin-4-yl-thiazolo[4,5-c]pyridin-2-yl)-amide], the IC50 was greater than 1000 nM at human A3 receptor; greater than 1000 nM on human A1 receptor; less than 10 nM with mouse Pan T cells; less than 10 nM on human A2A receptor [1]; less than 10 nM at human A2A receptor [2]; less than 100 nM on human A2B receptor.
With `COc1ncc(-c2ccccc2)c2sc(NC(=O)N3CCC(N4C(=O)CNC4=O)CC3)nc12` [Compound 137, 4-(2,5-Dioxo-imidazolidin-1-yl)-piperidine-1-carboxylic acid (4-methoxy-7-phenyl-thiazolo[4,5-c]pyridin-2-yl)-amide], the IC50 was greater than 1000 nM on human A3 receptor; less than 1000 nM on human A1 receptor; less than 10 nM with mouse Pan T cells; less than 10 nM on human A2A receptor [1]; less than 10 nM on human A2A receptor [2]; less than 10 nM on human A2B receptor.
Consider `COc1nc(F)c(-c2ccccc2)c2sc(NC(=O)N3CC[C@@]4(CCCOC4)C3)nc12` [Compound 13, (5S)-N-{6-fluoro-4-methoxy-7-phenyl-[1,3]thiazolo[4,5-c]pyridin-2-yl}-7-oxa-2-azaspiro[4.5]decane-2-carboxamide], for which the half-maximal inhibitory concentration (IC50) on human A3 receptor was greater than 1000 nM; on human A1 receptor it was less than 1000 nM; in the assay with mouse Pan T cells, less than 10 nM; on human A2A receptor [1] it was less than 10 nM; at human A2A receptor [2], less than 10 nM; at human A2B receptor, less than 10 nM.
In the case of `COc1ncc(-c2ccccc2)c2sc(NC(=O)N3CC[C@H](CN)C3)nc12` [Compound 1, (R)-3-Aminomethyl-pyrrolidine-1-carboxylic acid (4-methoxy-7-phenyl-thiazolo[4,5-c]pyridin-2-yl)-amide], the IC50 on human A3 receptor is greater than 1000 nM; on human A1 receptor, greater than 1000 nM; in the assay on mouse Pan T cells it was less than 100 nM; on human A2A receptor [1], less than 10 nM; on human A2A receptor [2], less than 10 nM; on human A2B receptor it was less than 100 nM.
